Measurements from US6355799B1, “Substituted benzene compounds, process for their preparation, and herbicidal and defoliant compositions containing them” (ISK Americas Incorporated, priority 1997, dated 2002).

Key:
Assay type in all cases: in vivo
[1] = test system: velvetleaf (Abutilon theophrasti, ABUTH); assay: Post-emerge test, greenhouse herbicide activity screening; conditions: for phytotoxicity rating ABUTH: rating scale 0-100
Method in brief: (§1)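 Herbicidal damage is scored 0 (none) to 100 (complete plant death) two weeks after a simulated field spray. Rates span 15–1000 g ai/ha, delivered in acetone at 187 l/ha. For post-emergence treatments, plants have 2–3 leaves and the spray carries 0.25% v/v non-ionic surfactant.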

[2] = test system: sicklepod (Cassia obtusifolia, CASOB); assay: as above; conditions: for phytotoxicity rating CASOB: rating scale 0-100
Method in brief: as §1

[3] = test system: green foxtail (Setaria viridis, SETVI); assay: as above; conditions: for phytotoxicity rating SETVI: rating scale 0-100
Method in brief: as §1

[4] = test system: johnsongrass (Sorghum halepense, SORHA); assay: as above; conditions: for phytotoxicity rating SORHA: rating scale 0-100
Method in brief: as §1

[5] = test system: lambsquarters (Chenopodium album, CHEAL); assay: as above; conditions: for phytotoxicity rating CHEAL: rating scale 0-100
Method in brief: as §1

[6] = test system: large crabgrass (Digitaria sanguinalis, DIGSA); assay: as above; conditions: for phytotoxicity rating DIGSA: rating scale 0-100
Method in brief: as §1

[7] = test system: redroot pigweed (Amaranthus retroflexus, AMARE); assay: as above; conditions: for phytotoxicity rating AMARE: rating scale 0-100
Method in brief: as §1

[8] = test system: ivyleaf morningglory (Ipomoea hederacea, IPOHE); assay: as above; conditions: for phytotoxicity rating IPOHE: rating scale 0-100
Method in brief: as §1

[9] = test system: barnyardgrass (Echinochloa crus-galli, ECHCG); assay: as above; conditions: for phytotoxicity rating ECHCG: rating scale 0-100
Method in brief: as §1

[10] = test system: common ragweed (Ambrosia artemisizfolia L., AMBEL); assay: Pre-emerge test, greenhouse herbicide activity screening; conditions: for Pre-emerge herbicidal activity, phytotoxicity rating AMBEL: rating scale 0-100, 14 days after application; for Pre-emerge Herbicidal Activity, phytotoxicity rating (0-100), AMBEL: rated 14 days after application, 0 = no damage, 100 = complete death
Method in brief: (§2)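 Plants grown in 10 cm pots of sandy loam mix received acetone-dissolved compounds through a moving flat-fan nozzle. Doses ranged from 15 to 1000 g ai/ha. Pre-emerge pots were seeded one day earlier, post-emerge pots 8–21 days earlier. Fourteen days on, each pot was graded 0–100 for damage.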

[11] = test system: velvetleaf (Abutilon theophrasti, ABUTH); assay: as above; conditions: for Pre-emerge herbicidal activity, phytotoxicity rating ABUTH: rating scale 0-100, 14 days after application; for Pre-emerge Herbicidal Activity, phytotoxicity rating (0-100), ABUTH: rated 14 days after application, 0 = no damage, 100 = complete death
Method in brief: as §2

[12] = test system: sicklepod (Cassia obtusifolia, CASOB); assay: as above; conditions: for Pre-emerge herbicidal activity, phytotoxicity rating CASOB: rating scale 0-100, 14 days after application; for Pre-emerge Herbicidal Activity, phytotoxicity rating (0-100), CASOB: rated 14 days after application, 0 = no damage, 100 = complete death
Method in brief: as §2

[13] = test system: green foxtail (Setaria viridis, SETVI); assay: as above; conditions: for Pre-emerge herbicidal activity, phytotoxicity rating SETVI: rating scale 0-100, 14 days after application; for Pre-emerge Herbicidal Activity, phytotoxicity rating (0-100), SETVI: rated 14 days after application, 0 = no damage, 100 = complete death
Method in brief: as §2

[14] = test system: johnsongrass (Sorghum halepense, SORHA); assay: as above; conditions: for Pre-emerge herbicidal activity, phytotoxicity rating SORHA: rating scale 0-100, 14 days after application; for Pre-emerge Herbicidal Activity, phytotoxicity rating (0-100), SORHA: rated 14 days after application, 0 = no damage, 100 = complete death
Method in brief: as §2

[15] = test system: lambsquarters (Chenopodium album, CHEAL); assay: as above; conditions: for Pre-emerge herbicidal activity, phytotoxicity rating CHEAL: rating scale 0-100, 14 days after application; for Pre-emerge Herbicidal Activity, phytotoxicity rating (0-100), CHEAL: rated 14 days after application, 0 = no damage, 100 = complete death
Method in brief: as §2

[16] = test system: large crabgrass (Digitaria sanguinalis, DIGSA); assay: as above; conditions: for Pre-emerge herbicidal activity, phytotoxicity rating DIGSA: rating scale 0-100, 14 days after application; for Pre-emerge Herbicidal Activity, phytotoxicity rating (0-100), DIGSA: rated 14 days after application, 0 = no damage, 100 = complete death
Method in brief: as §2

[17] = test system: ivyleaf morningglory (Ipomoea hederacea, IPOHE); assay: as above; conditions: for Pre-emerge herbicidal activity, phytotoxicity rating IPOHE: rating scale 0-100, 14 days after application; for Pre-emerge Herbicidal Activity, phytotoxicity rating (0-100), IPOHE: rated 14 days after application, 0 = no damage, 100 = complete death
Method in brief: as §2

[18] = test system: barnyardgrass (Echinochloa crus-galli, ECHCG); assay: as above; conditions: for Pre-emerge herbicidal activity, phytotoxicity rating ECHCG: rating scale 0-100, 14 days after application; for Pre-emerge Herbicidal Activity, phytotoxicity rating (0-100), ECHCG: rated 14 days after application, 0 = no damage, 100 = complete death
Method in brief: as §2

[19] = test system: redroot pigweed (Amaranthus retroflexus, AMARE); assay: as above; conditions: for Pre-emerge herbicidal activity, phytotoxicity rating AMARE: rating scale 0-100, 14 days after application; for Pre-emerge Herbicidal Activity, phytotoxicity rating (0-100), AMARE: rated 14 days after application, 0 = no damage, 100 = complete death
Method in brief: as §2

[20] = Rate 250 g ai/ha, rating scale 0-100 (0 no damage, 100 complete death), 14 days after application
[21] = post-emerge, 63 g ai/ha, 14 days after application
[22] = post-emerge, 250 g ai/ha, 14 days after application

O=C(Nc1cc(Cl)ccc1N1C(=O)c2ccccc2C1=O)c1ccc2ccccc2c1 [Compound 13-5, N-[4-chloro-2-(2-naphthoylamino)phenyl]phthalimide]
pest or weed control at 63 g/ha ([1]; Abutilon theophrasti, post-emergence, 336 h, post-emerge, 63 g ai/ha, phytotoxicity rating 0-100 at 14 days after application, read-out: Post-emerge Herbicidal Activity ABUTH): 70% | Post-emerge Herbicidal Activity, phytotoxicity rating ABUTH [1, 20]: 70 | Post-emerge Herbicidal Activity, phytotoxicity rating CASOB [2, 20]: 30 | pest or weed control at 63 g/ha ([2]; Senna obtusifolia, post-emergence, 336 h, post-emerge, 63 g ai/ha, phytotoxicity rating 0-100 at 14 days after application, read-out: Post-emerge Herbicidal Activity CASOB): 40% | Post-emerge Herbicidal Activity, phytotoxicity rating SETVI [3, 20]: 10 | pest or weed control at 63 g/ha ([3]; Setaria viridis, post-emergence, 336 h, post-emerge, 63 g ai/ha, phytotoxicity rating 0-100 at 14 days after application, read-out: Post-emerge Herbicidal Activity SETVI): 0% | Post-emerge Herbicidal Activity, phytotoxicity rating SORHA [4, 20]: 0 | pest or weed control at 63 g/ha ([4]; Sorghum halepense, post-emergence, 336 h, post-emerge, 63 g ai/ha, phytotoxicity rating 0-100 at 14 days after application, read-out: Post-emerge Herbicidal Activity SORHA): 0% | pest or weed control at 63 g/ha ([5]; Chenopodium album, post-emergence, 336 h, post-emerge, 63 g ai/ha, phytotoxicity rating 0-100 at 14 days after application, read-out: Post-emerge Herbicidal Activity CHEAL): 95% | Post-emerge Herbicidal Activity, phytotoxicity rating CHEAL [5, 20]: 90 | pest or weed control at 63 g/ha ([6]; Digitaria sanguinalis, post-emergence, 336 h, post-emerge, 63 g ai/ha, phytotoxicity rating 0-100 at 14 days after application, read-out: Post-emerge Herbicidal Activity DIGSA): 0% | Post-emerge Herbicidal Activity, phytotoxicity rating DIGSA [6, 20]: 20 | pest or weed control at 63 g/ha ([7]; Amaranthus retroflexus, post-emergence, 336 h, post-emerge, 63 g ai/ha, phytotoxicity rating 0-100 at 14 days after application, read-out: Post-emerge Herbicidal Activity AMARE): 70% | Post-emerge Herbicidal Activity, phytotoxicity rating AMARE [7, 20]: 75 | pest or weed control at 63 g/ha ([8]; Ipomoea, post-emergence, 336 h, post-emerge, 63 g ai/ha, phytotoxicity rating 0-100 at 14 days after application, read-out: Post-emerge Herbicidal Activity IPOHE): 50% | Post-emerge Herbicidal Activity, phytotoxicity rating IPOHE [8, 20]: 60 | pest or weed control at 63 g/ha ([9]; Echinochloa crus-galli, post-emergence, 336 h, post-emerge, 63 g ai/ha, phytotoxicity rating 0-100 at 14 days after application, read-out: Post-emerge Herbicidal Activity ECHCG): 0% | Post-emerge Herbicidal Activity, phytotoxicity rating ECHCG [9, 20]: 0 | Pre-emerge herbicidal activity, phytotoxicity rating AMBEL ([10]; 63 g ai/ha): 0 | Pre-emerge herbicidal activity, phytotoxicity rating AMBEL ([10]; 250 g ai/ha): 0 | Pre-emerge herbicidal activity, phytotoxicity rating ABUTH ([11]; 63 g ai/ha): 0 | Pre-emerge herbicidal activity, phytotoxicity rating ABUTH ([11]; 250 g ai/ha): 0 | Pre-emerge herbicidal activity, phytotoxicity rating CASOB ([12]; 63 g ai/ha): 0 | Pre-emerge herbicidal activity, phytotoxicity rating CASOB ([12]; 250 g ai/ha): 0 | Pre-emerge herbicidal activity, phytotoxicity rating SETVI ([13]; 63 g ai/ha): 30 | Pre-emerge herbicidal activity, phytotoxicity rating SETVI ([13]; 250 g ai/ha): 50 | Pre-emerge herbicidal activity, phytotoxicity rating SORHA ([14]; 63 g ai/ha): 0 | Pre-emerge herbicidal activity, phytotoxicity rating SORHA ([14]; 250 g ai/ha): 30 | Pre-emerge herbicidal activity, phytotoxicity rating CHEAL ([15]; 63 g ai/ha): 20 | Pre-emerge herbicidal activity, phytotoxicity rating CHEAL ([15]; 250 g ai/ha): 50 | Pre-emerge herbicidal activity, phytotoxicity rating DIGSA ([16]; 63 g ai/ha): 0 | Pre-emerge herbicidal activity, phytotoxicity rating DIGSA ([16]; 250 g ai/ha): 10 | Pre-emerge herbicidal activity, phytotoxicity rating IPOHE ([17]; 63 g ai/ha): 0 | Pre-emerge herbicidal activity, phytotoxicity rating IPOHE ([17]; 250 g ai/ha): 0 | Pre-emerge herbicidal activity, phytotoxicity rating ECHCG ([18]; 63 g ai/ha): 0 | Pre-emerge herbicidal activity, phytotoxicity rating ECHCG ([18]; 250 g ai/ha): 0 | Pre-emerge herbicidal activity, phytotoxicity rating AMARE ([19]; 63 g ai/ha): 30 | Pre-emerge herbicidal activity, phytotoxicity rating AMARE ([19]; 250 g ai/ha): 95

Cc1c(Cl)cc(F)c(-n2c(=O)cc(C(F)(F)F)n(C)c2=O)c1NC(=O)c1ccc2ccccc2c1 [Compound 2-122, 3-[4-chloro-6-fluoro3-methyl-2-(2-naphthoyl)aminophenyl]-1-methyl-6-trifluoromethyl-2,4(1H, 3H)-pyrimidinedione]
phytotoxicity rating ABUTH [1, 21]: 100 | phytotoxicity rating ABUTH [1, 22]: 100 | phytotoxicity rating CASOB [2, 21]: 100 | phytotoxicity rating CASOB [2, 22]: 100 | phytotoxicity rating SETVI [3, 21]: 90 | phytotoxicity rating SETVI [3, 22]: 95 | phytotoxicity rating SORHA [4, 21]: 30 | phytotoxicity rating SORHA [4, 22]: 60 | phytotoxicity rating CHEAL [5, 21]: 100 | phytotoxicity rating CHEAL [5, 22]: 100 | phytotoxicity rating DIGSA [6, 21]: 40 | phytotoxicity rating DIGSA [6, 22]: 60 | phytotoxicity rating AMARE [7, 21]: 100 | phytotoxicity rating AMARE [7, 22]: 100 | phytotoxicity rating IPOHE [8, 21]: 100 | phytotoxicity rating IPOHE [8, 22]: 80 | phytotoxicity rating ECHCG [9, 21]: 30 | phytotoxicity rating ECHCG [9, 22]: 50 | Pre-emerge Herbicidal Activity, phytotoxicity rating (0-100), AMBEL ([10]; 63 g ai/ha): 30 | Pre-emerge Herbicidal Activity, phytotoxicity rating (0-100), AMBEL ([10]; 250 g ai/ha): 90 | Pre-emerge Herbicidal Activity, phytotoxicity rating (0-100), ABUTH ([11]; 63 g ai/ha): 100 | Pre-emerge Herbicidal Activity, phytotoxicity rating (0-100), ABUTH ([11]; 250 g ai/ha): 100 | Pre-emerge Herbicidal Activity, phytotoxicity rating (0-100), CASOB ([12]; 63 g ai/ha): 30 | Pre-emerge Herbicidal Activity, phytotoxicity rating (0-100), CASOB ([12]; 250 g ai/ha): 50 | Pre-emerge Herbicidal Activity, phytotoxicity rating (0-100), SETVI ([13]; 63 g ai/ha): 80 | Pre-emerge Herbicidal Activity, phytotoxicity rating (0-100), SETVI ([13]; 250 g ai/ha): 100 | Pre-emerge Herbicidal Activity, phytotoxicity rating (0-100), SORHA ([14]; 63 g ai/ha): 30 | Pre-emerge Herbicidal Activity, phytotoxicity rating (0-100), SORHA ([14]; 250 g ai/ha): 60 | Pre-emerge Herbicidal Activity, phytotoxicity rating (0-100), CHEAL ([15]; 63 g ai/ha): 100 | Pre-emerge Herbicidal Activity, phytotoxicity rating (0-100), CHEAL ([15]; 250 g ai/ha): 100 | Pre-emerge Herbicidal Activity, phytotoxicity rating (0-100), DIGSA ([16]; 63 g ai/ha): 100 | Pre-emerge Herbicidal Activity, phytotoxicity rating (0-100), DIGSA ([16]; 250 g ai/ha): 100 | Pre-emerge Herbicidal Activity, phytotoxicity rating (0-100), IPOHE ([17]; 63 g ai/ha): 30 | Pre-emerge Herbicidal Activity, phytotoxicity rating (0-100), IPOHE ([17]; 250 g ai/ha): 90 | Pre-emerge Herbicidal Activity, phytotoxicity rating (0-100), ECHCG ([18]; 63 g ai/ha): 20 | Pre-emerge Herbicidal Activity, phytotoxicity rating (0-100), ECHCG ([18]; 250 g ai/ha): 80 | Pre-emerge Herbicidal Activity, phytotoxicity rating (0-100), AMARE ([19]; 63 g ai/ha): 100 | Pre-emerge Herbicidal Activity, phytotoxicity rating (0-100), AMARE ([19]; 250 g ai/ha): 100
